The term EC50 denotes the concentration at which the effect is half-maximal. Higher therefore signals lower potency in that assay. What is called IC50 is the point on the concentration scale where inhibition reaches its midpoint.

Each structure is given as a SMILES string. The source made the active and inactive calls. The rule behind the calls is not given here.

From ChEMBL document CHEMBL4616726, “Optimization of the Linker Domain in a Dimeric Compound that Degrades an r(CUG) Repeat Expansion in Cells” (J Med Chem, 2020) come the findings set out here.

Data set [1] deals with r(CUG) repeat expansion. As to the kind of experiment: Induction of 5'-biotinylated r(CUG)12 RNA repeat (unknown origin) degradation assessed as disruption of r(CUG)12-MBNL1 complex formation incubated for 15 mins by TR-FRET assay. In kind it is nucleic-acid assay. For orientation: In TR-FRET formats the signal depends on donor and acceptor labels being close together.
For data set [2], the system named is r(CUG) repeat expansion. The data set is described as follows: Induction of r(CUG)exp RNA repeat in human DM1-patient derived myotubes assessed as reduction in number of foci containing r(CUG)exp-MBNL1 foci at 5 uM by immunofluorescence assay. In kind it is nucleic-acid assay.
The nature of data set [3]: Drug localization in cytoplasm of human DM1-patient derived myotubes by live-cell fluorescence microscopy. In kind it is ADME, subcellular.
The target in data set [4] is r(CUG) repeat expansion. As to the kind of experiment: Binding affinity to r(CUG)12 RNA repeat (unknown origin) by fluorescence based assay. In kind it is nucleic-acid assay.
The nature of data set [5]: Drug localization in nucleus of human DM1-patient derived myotubes by live-cell fluorescence microscopy. The class given is ADME, subcellular.
The nature of data set [6]: Drug uptake in human DM1-patient derived myotubes by fluorescence based assay. The following applies: in vitro. The class given is ADME.
Data set [7] relates to r(CUG) repeat expansion. As to the kind of experiment: Induction of r(CUG)exp RNA repeat in human DM1-patient derived myotubes assessed as improvement in MBNL1 exon 5 splicing defect by RT-qPCR analysis. In kind it is nucleic-acid assay. (In general: Real-time PCR tracks product formation cycle by cycle.)
For data set [8], the system named is r(CUG) repeat expansion. The data set is described as follows: Induction of r(CUG)exp RNA repeat in human DM1-patient derived myotubes assessed as improvement in MBNL1 exon 5 splicing defect at 5 uM by RT-qPCR analysis relative to control. The class given is nucleic-acid assay.
Data set [9] concerns the target r(CUG) repeat expansion. As to the kind of experiment: Binding affinity to r(CUG)8 RNA repeat (unknown origin) by fluorescence based assay. In kind it is nucleic-acid assay.
The subject of data set [10] is r(CUG) repeat expansion. As to the kind of experiment: Induction of r(CUG)exp RNA repeat in human DM1-patient derived myotubes assessed as reduction in number of foci containing r(CUG)exp-MBNL1 foci at 5 uM by RNA fluorescence in situ hybridization assay. In kind it is nucleic-acid assay.
In data set [11] the test system is r(CUG) repeat expansion. The data set is described as follows: Induction of DMPK mRNA 3'-UTR r(CUG)1300 repeat degradation in human DM1 patient-derived myotubes at 5 uM by RT-qPCR analysis relative to control. The class given is nucleic-acid assay.

On to `CN1CCN(c2ccc3[nH]c(-c4ccc5[nH]c(-c6cccc(OCCCC(=O)N(C)CCCCN(CC(N)=O)C(=O)[C@@H]7CCCN7C(=O)[C@@H]7CCCN7C(=O)[C@@H]7CCCN7C(=O)[C@@H]7CCCN7C(=O)CCCOc7cccc(-c8nc9ccc(-c%10nc%11ccc(N%12CCN(C)CC%12)cc%11[nH]%10)cc9[nH]8)c7)c6)nc5c4)nc3c2)CC1`, for which the outcome in the data set on r(CUG) repeat expansion [1] was Active.

As for `CN1CCN(c2ccc3[nH]c(-c4ccc5[nH]c(-c6cccc(OCCCC(=O)N(C)CCCCN(CC(N)=O)C(=O)[C@@H]7CCCN7C(=O)[C@@H]7CCCN7C(=O)CCCOc7cccc(-c8nc9ccc(-c%10nc%11ccc(N%12CCN(C)CC%12)cc%11[nH]%10)cc9[nH]8)c7)c6)nc5c4)nc3c2)CC1`, the result in the data set on r(CUG) repeat expansion [2] and in the data set on r(CUG) repeat expansion [10] was Active. Also, the Drug uptake result in data set [3], in data set [5] and in [6] was “Active” in each case. Moreover, the EC50 at r(CUG) repeat expansion [4] was 150 nM; at r(CUG) repeat expansion [9], over 10000 nM. Further, the Activity entry in the data set with r(CUG) repeat expansion [7] was “Dose-dependent effect”; in the data set on r(CUG) repeat expansion [8], 30%. Moreover, the IC50 in the data set on r(CUG) repeat expansion [1] is 5300 nM.

Consider `CN1CCN(c2ccc3[nH]c(-c4ccc5[nH]c(-c6cccc(OCCCC(=O)N(C)CCCCN(CC(N)=O)C(=O)[C@@H]7CCCN7C(=O)[C@@H]7CCCN7C(=O)[C@@H]7CCCN7C(=O)CCCOc7cccc(-c8nc9cc(-c%10nc%11cc(N%12CCN(C)CC%12)ccc%11[nH]%10)ccc9[nH]8)c7)c6)nc5c4)nc3c2)CC1`, for which the outcome with r(CUG) repeat expansion [1] was Active.

Take `CC(=O)O[C@H]1[C@H](O)[C@H](O[C@@H]2[C@H](O[C@H](c3cnc[nH]3)[C@@H](NC(=O)c3nc([C@@H](CC(N)=O)NC[C@@H](N)C(N)=O)nc(N)c3C)C(=O)N[C@@H](C)[C@H](O)[C@@H](C)C(=O)N[C@H](C(=O)NCCc3nc(-c4nc(C(=O)NCCCNCCCCNC(=O)CCCCCCC(=O)N(CCN(C)C(=O)CCCOc5cccc(-c6nc7ccc(-c8nc9ccc(N%10CCN(C)CC%10)cc9[nH]8)cc7[nH]6)c5)CC(=O)N(C)[C@@H](C)C(=O)N(C)[C@@H](C)C(=O)N(C)[C@@H](C)C(=O)N(CCCCN(C)C(=O)CCCOc5cccc(-c6nc7ccc(-c8nc9ccc(N%10CCN(C)CC%10)cc9[nH]8)cc7[nH]6)c5)CC(N)=O)cs4)cs3)[C@H](C)O)O[C@@H](CO)[C@H](O)[C@H]2O)O[C@@H](CO)[C@@H]1O`: the Activity with r(CUG) repeat expansion [11] was determined as 30%.

Consider `C[C@@H](NC(=O)CCCOc1cccc(-c2nc3ccc(-c4nc5ccc(N6CCN(C)CC6)cc5[nH]4)cc3[nH]2)c1)C(=O)N[C@H](C)C(=O)N[C@H](C)C(=O)N[C@H](C)C(=O)N(CCCCN(C)C(=O)CCCOc1cccc(-c2nc3cc(-c4nc5cc(N6CCN(C)CC6)ccc5[nH]4)ccc3[nH]2)c1)CC(N)=O`, for which the Drug uptake result in [3] and in [5] was “Active” each time. The outcome with r(CUG) repeat expansion [8] was inactive. Moreover, the outcome in the data set with r(CUG) repeat expansion [1] was Active.

For `CN1CCN(c2ccc3[nH]c(-c4ccc5[nH]c(-c6cccc(OCCCC(=O)N(C)CCCCN(CC(N)=O)C(=O)[C@@H]7C[C@@H](O)CN7C(=O)[C@@H]7C[C@@H](O)CN7C(=O)[C@@H]7C[C@@H](O)CN7C(=O)[C@@H]7C[C@@H](O)CN7C(=O)CCCOc7cccc(-c8nc9ccc(-c%10nc%11ccc(N%12CCN(C)CC%12)cc%11[nH]%10)cc9[nH]8)c7)c6)nc5c4)nc3c2)CC1`, the Drug uptake entry in data set [3] and in [6] was “Active” throughout. In addition, the outcome in the data set with r(CUG) repeat expansion [8] was inactive. The outcome in the data set with r(CUG) repeat expansion [1] was Active.

Consider `C[C@@H](C(=O)N(C)[C@@H](C)C(=O)N(C)[C@@H](C)C(=O)N(C)[C@@H](C)C(=O)N(CCCCN(C)C(=O)CCCOc1cccc(-c2nc3cc(-c4nc5cc(N6CCN(C)CC6)ccc5[nH]4)ccc3[nH]2)c1)CC(N)=O)N(C)C(=O)CCCOc1cccc(-c2nc3ccc(-c4nc5ccc(N6CCN(C)CC6)cc5[nH]4)cc3[nH]2)c1`, for which the outcome with r(CUG) repeat expansion [2], in the data set with r(CUG) repeat expansion [1] and in the data set with r(CUG) repeat expansion [10] was Active. Moreover, the half-maximal effective concentration (EC50) was 280 nM at r(CUG) repeat expansion [4] and over 10000 nM at r(CUG) repeat expansion [9]. The Drug uptake result in [5] and in [6] was “Active” each time. In the data set with r(CUG) repeat expansion [8], the Activity was 30%.

For the compound `CN1CCN(c2ccc3[nH]c(-c4ccc5[nH]c(-c6cccc(OCCCC(=O)N(C)CCCCN(CC(N)=O)C(=O)[C@H](Cc7ccc(O)cc7)N(C)C(=O)[C@H](Cc7ccc(O)cc7)N(C)C(=O)[C@H](Cc7ccc(O)cc7)N(C)C(=O)[C@H](Cc7ccc(O)cc7)N(C)C(=O)CCCOc7cccc(-c8nc9ccc(-c%10nc%11ccc(N%12CCN(C)CC%12)cc%11[nH]%10)cc9[nH]8)c7)c6)nc5c4)nc3c2)CC1`, the outcome in the data set on r(CUG) repeat expansion [1] was Active.

`CN1CCN(c2ccc3[nH]c(-c4ccc5[nH]c(-c6cccc(OCCCC(=O)N(C)CCCCN(CC(N)=O)C(=O)[C@@H]7CCCN7C(=O)[C@@H]7CCCN7C(=O)[C@@H]7CCCN7C(=O)[C@@H]7CCCN7C(=O)[C@@H]7CCCN7C(=O)CCCOc7cccc(-c8nc9cc(-c%10nc%11cc(N%12CCN(C)CC%12)ccc%11[nH]%10)ccc9[nH]8)c7)c6)nc5c4)nc3c2)CC1`: in the data set on r(CUG) repeat expansion [1], the result was Active.
